The values below come from ChEMBL document CHEMBL1201862, “PubChem BioAssay data set” (2004).

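All cell lines were grown in 96-well plates and treated with compound for 48 hours. GI50 marks 50% less growth.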 Activity calls are given as the source filed them. Cut-off read from the data, not from the text of the source: active = GI50 up to about 1.1 µM and inactive = higher. *1 amine or outer side, *2 acyl side, *3 side chain or, on linkers, in order; H or OH if unused. Where a SMILES comes first, the peptide text is derived from it. Bridges are numbered along the chain shown (N, C = ends). Roman numbers before positions name the chains, in order. [ ]: non-standard residue; d: D form. Actinocin(9to1) = Cc1c2oc3c(C)ccc(C(=O)[*:1])c3nc-2c(C(=O)[*:2])c(N)c1=O; NMeV = CN[CH](C(=O)O)C(C)C; Sar = CNCC(=O)O

Test systems include 786-0; A498; A549; ACHN; CCRF-CEM; HOP-62; LOX IMVI; MOLT-4; NCI-H226; NCI-H23; NCI/ADR-RES; OVCAR-8; PC-3; SK-MEL-5; SK-OV-3; SNB-19; SW-620; T47D; UACC-257; UACC-62.
Test in all cases: growth of human tumour cells (NCI), 48 h

For the compound `Oc1ccc(Cl)cc1Sc1cc(Cl)ccc1O` [FENTICLOR], the GI50 was 18.1 µM (inactive) with 786-0; 11.2 µM (inactive) in the test on A498; 26.8 µM (inactive) in the test on A549; 8.65 µM (inactive) in the test with ACHN; 5.92 µM (inactive) with CCRF-CEM; 16.7 µM (inactive) with HOP-62. Moreover, the GI50 in the test with LOX IMVI is 8.55 µM (inactive); in the test with MOLT-4 it was 7.53 µM (inactive); in the test with NCI-H226 it was 20.5 µM (inactive); in the test on NCI-H23 it was 5.04 µM (inactive); in the test with NCI/ADR-RES, 12.5 µM (inactive); with OVCAR-8, 15 µM (inactive). Besides, the GI50 with PC-3 is 15.3 µM (inactive); in the test with SK-MEL-5, 3.83 µM (inactive); in the test with SK-OV-3, 20.5 µM (inactive); in the test with SNB-19 it was 12.9 µM (inactive); with SW-620 it was 16.7 µM (inactive); in the test on T47D, 5.85 µM (inactive). Besides, the results for the GI50 in the test with UACC-257 and with UACC-62 were 6.65 µM (inactive) and 5.66 µM (inactive), respectively.

For `Cc1nc2c(sc3nc4ccccc4n32)c(=O)[nH]1`, the GI50 in the test with 786-0, in the test with A498, with A549, in the test with ACHN, with CCRF-CEM and in the test on HOP-62 was > 100 µM (inactive) throughout. In addition, the GI50 in the test with LOX IMVI is > 100 µM (inactive); in the test on MOLT-4 it was > 100 µM (inactive); in the test on NCI-H226, > 100 µM (inactive); in the test on NCI-H23, > 100 µM (inactive); in the test with NCI/ADR-RES, > 100 µM (inactive); in the test on OVCAR-8, 42.5 µM (inactive). The GI50 in the test with PC-3 is > 100 µM (inactive); in the test with SK-MEL-5 it was > 100 µM (inactive); in the test with SK-OV-3, 73.1 µM (inactive); in the test on SNB-19, > 100 µM (inactive); with SW-620, > 100 µM (inactive); with T47D, > 100 µM (inactive). Besides, the GI50 in the test with UACC-257 and with UACC-62 was > 100 µM (inactive) throughout.

As for `O=c1[nH]nc(Cc2ccc(Cl)cc2)n1/N=C/c1ccc([N+](=O)[O-])o1`, the GI50 with 786-0 was 2.23 µM (inactive); in the test on A498, 5.7 µM (inactive); with A549, 3.42 µM (inactive); with ACHN, 2.12 µM (inactive); in the test with CCRF-CEM it was 1.76 µM (inactive); in the test on HOP-62, 2.77 µM (inactive). The GI50 in the test on LOX IMVI is 1.2 µM (inactive); in the test with MOLT-4 it was 1.55 µM (inactive); in the test with NCI-H226, 9.18 µM (inactive); in the test with NCI-H23, 3.34 µM (inactive); with NCI/ADR-RES it was 3.16 µM (inactive); in the test on OVCAR-8, 1.99 µM (inactive). Moreover, the GI50 in the test with PC-3 was 3.08 µM (inactive); in the test with SK-MEL-5 it was 2.61 µM (inactive); in the test with SK-OV-3 it was 5.22 µM (inactive); with SNB-19, 3.98 µM (inactive); in the test on SW-620 it was 2.92 µM (inactive); in the test on T47D it was 21.4 µM (inactive). The GI50 with UACC-257 is 2.77 µM (inactive); with UACC-62, 2.87 µM (inactive).

For `CCOC(C/N=c1/nc(N(C)C)ss1)OCC`, the GI50 in the test on 786-0 was 17.7 µM (inactive); in the test with A498 it was > 82.8 µM (inactive); with A549, 57 µM (inactive); in the test with ACHN it was 26.2 µM (inactive); with CCRF-CEM, 0.208 µM (active); in the test on HOP-62, 65.6 µM (inactive). The GI50 with LOX IMVI is 16.3 µM (inactive); in the test on MOLT-4, 0.593 µM (active); in the test with NCI-H226, 24.6 µM (inactive); in the test with NCI-H23 it was 33.5 µM (inactive); in the test on NCI/ADR-RES, > 100 µM (inactive); with OVCAR-8, 28.1 µM (inactive). In addition, the GI50 with PC-3 was 14.3 µM (inactive); in the test on SK-MEL-5, 0.832 µM (active); in the test on SK-OV-3, > 100 µM (inactive); with SNB-19 it was > 67.1 µM (inactive); with SW-620, 2.6 µM (inactive); in the test with T47D, 23.4 µM (inactive). The GI50 was 26.4 µM (inactive) in the test on UACC-257 and 1.17 µM (inactive) in the test on UACC-62.

In the case of `CCCCCC(O)[C@H]1C(=O)C[C@@H](O[Si](C)(C)C(C)(C)C)[C@@H]1/C=C/CCOCc1ccccc1` (stereo not given in full), the GI50 in the test with 786-0 was 11.4 µM (inactive); in the test on A498, 17.8 µM (inactive); in the test on A549, 18 µM (inactive); in the test with ACHN, 13.5 µM (inactive); in the test with CCRF-CEM, > 55.5 µM (inactive); in the test with HOP-62 it was 17.3 µM (inactive). The GI50 in the test with LOX IMVI was 10.9 µM (inactive); in the test with MOLT-4, 4.46 µM (inactive); with NCI-H226, 14 µM (inactive); in the test on NCI-H23, 16.2 µM (inactive); with NCI/ADR-RES, 12.1 µM (inactive); with OVCAR-8 it was 13.8 µM (inactive). Also, the GI50 is 12.1 µM (inactive) with PC-3; 16.6 µM (inactive) in the test on SK-MEL-5; 16.8 µM (inactive) with SK-OV-3; 15 µM (inactive) in the test on SNB-19; 13.1 µM (inactive) in the test with SW-620; 13.6 µM (inactive) in the test with T47D. For the same compound, the results for the GI50 in the test with UACC-257 and in the test on UACC-62 were 13.3 µM (inactive) and 11.8 µM (inactive), respectively.

As for `CCCCCCCCCCCCCCCC(=O)Nc1ccn(C2OC(CO)C(O)C2O)c(=O)n1` (stereo not given), the GI50 in the test with 786-0 was 4.01 µM (inactive); in the test on A498, 22.1 µM (inactive); in the test on A549, 2.62 µM (inactive); in the test with ACHN, 3.08 µM (inactive); in the test with CCRF-CEM, 0.0308 µM (active); in the test on HOP-62, 0.887 µM (active). Also, the GI50 with LOX IMVI was 5.25 µM (inactive); in the test with MOLT-4 it was 0.131 µM (active); in the test on NCI-H226 it was 30.5 µM (inactive); in the test with NCI-H23 it was 2.05 µM (inactive); with NCI/ADR-RES, 7.23 µM (inactive); in the test on OVCAR-8 it was 6.55 µM (inactive). For the same compound, the GI50 was 3.78 µM (inactive) in the test with PC-3; 29.9 µM (inactive) in the test with SK-MEL-5; 16.7 µM (inactive) in the test with SK-OV-3; 15.2 µM (inactive) with SNB-19; > 90.4 µM (inactive) in the test on SW-620; 30.1 µM (inactive) with T47D. The GI50 was 78.3 µM (inactive) in the test on UACC-257 and 24.2 µM (inactive) with UACC-62.

On to `Cc1c2oc3c(C)ccc(C(=O)NC4C(=O)NC(C(C)C)C(=O)N5CCCC5C(=O)N(C)CC(=O)N(C)C(C(C)C)C(=O)OC4C)c3nc-2c(C(=O)NC2C(=O)NC(C(C)C)C(=O)N3CCCC3C(=O)N(C)CC(=O)N(C)C(C(C)C)C(=O)OC2C)c(N)c1=O` (stereo not given) (I: TVP[Sar][NMeV] / II: TVP[Sar][NMeV]; ester I:1-I:C, II:1-II:C; linker I:N-II:N via Actinocin(9to1); configuration not given here), for which the GI50 in the test with 786-0 was 0.000143 µM (active); in the test with A498, 0.00169 µM (active); in the test with A549, 0.000199 µM (active); in the test with ACHN, 0.000213 µM (active); in the test on CCRF-CEM it was < 0.0001 µM (active); in the test with HOP-62, 0.000486 µM (active). For the same compound, the GI50 is < 0.0001 µM (active) in the test on LOX IMVI; < 0.0001 µM (active) with MOLT-4; 0.000891 µM (active) in the test on NCI-H226; 0.000556 µM (active) in the test on NCI-H23; 0.0499 µM (active) with NCI/ADR-RES; 0.000212 µM (active) with OVCAR-8. In addition, the GI50 was 0.000428 µM (active) with PC-3; 0.000351 µM (active) with SK-MEL-5; 0.0017 µM (active) in the test with SK-OV-3; 0.000112 µM (active) in the test with SNB-19; 0.000698 µM (active) in the test with SW-620; 0.000507 µM (active) in the test on T47D. The GI50 in the test on UACC-257 was 0.000957 µM (active); with UACC-62, < 0.0001 µM (active).
